For assay [1] the following is noted: acute thermal, persistent, inflammatory, neuropathic pain models; cited from earlier work.
The target in assay [2] is T1, rat CB2 (Rattus norvegicus (Rat), UniProt Q9QZN9). Kind of assay: rat CB2 radioligand binding assay ([3H]CP 55,940 competition). Put shortly: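 Membranes from HEK293 cells stably expressing rat CB2 (20 μg protein/well) competed with 0.5 nM [3H]CP 55,940 and five displacer concentrations, 45 min at 30° C in Tris/EDTA/MgCl2/BSA buffer pH 7.4. Filtration and scintillation counting; nonspecific binding with 10 μM unlabeled CP 55,940.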

Assay [3] deals with rat CB1 (Rattus norvegicus (Rat), UniProt P20272). As to the kind of experiment: CB1 cyclase functional assay (HitHunter cAMP). Format: cell-based. Conditions: HEK cells, forskolin 37 μM; read-out: rCB1 cyclase (EC50). As for the experimental part:
(§1) The cyclase functional assays were performed using the HitHunter™ cAMP assay kit from DiscoveRx (Fremont, Calif.) according to vendor's protocol. Briefly, HEK cells expressing CB2 or CB1 receptors (rat or human) were detached using cell dissociation buffer (Invitrogen, Carlsbad, Calif.), dispersed and placed in suspension at 10,000 cells per well in 96 well plates prior to the assay. Cell suspensions were incubated at 37° C. for 20 min with variable concentrations of test ligands and or 10 μM CP 55,940-positive control in the presence of a fixed concentration of forskolin (18 μM for rat CB2 and 37 μM for rat CB1) in Dulbescco's phosphate-buffered saline (Invitrogen, Carlsbad, Calif.) supplemented with bovine serum albumin (0.01% final concentration). The reactions were terminated by the addition of lysis buffer and the luminescence was detected following the procedure according to the manufacturer's instructions. EC50 values were calculated using sigmoidal dose-response curve fitting from Prism (GraphPad).

Assay [4] concerns the target human CB2 receptors (Homo sapiens (Human), UniProt P34972). As to the kind of experiment: human CB2 radioligand binding assay ([3H]CP 55,940 competition). Put shortly: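 Membranes from HEK293 cells stably expressing human CB2 (5 μg protein/well) competed against 0.5 nM [3H]CP 55,940 with five concentrations of test ligand (0.01 nM to 10 μM), pH 7.4 Tris buffer with BSA, 90 min at 30 °C. Filtration and scintillation counting; nonspecific binding with 10 μM unlabeled CP 55,940.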

For assay [5], the target named is T1, rat CB2. Kind of assay: CB2 cyclase functional assay (HitHunter cAMP). Format: cell-based. As to conditions: HEK cells, forskolin 18 μM. As for the experimental part:
as §1

The conditions of assay [6]: neuropathic, incisional, chronic and acute inflammatory pain; cited from earlier work.
Assay [7] relates to rat. As to conditions: rat formalin model; cited from earlier work.
For assay [8], the system named is β-amyloid-induced microglial activation. Conditions: in vitro; cited from earlier work.
Assay [9] concerns apolipoprotein E knockout mice. As to conditions: low doses; cited from earlier work.
Assay [10] concerns mice. As to conditions: cited from earlier work.
The mark [11] stands for this setting: HEK293 membranes, 0.5 nM [3H]CP 55,940, read-out: rat CB2 (Ki).
[12] abbreviates: HEK293 membranes, 0.5 nM [3H]CP 55,940, read-out: human CB2 (Ki).

Where two headings read alike, the source gives them in different places.

T1 sequence (Q9QZN9 whole entry): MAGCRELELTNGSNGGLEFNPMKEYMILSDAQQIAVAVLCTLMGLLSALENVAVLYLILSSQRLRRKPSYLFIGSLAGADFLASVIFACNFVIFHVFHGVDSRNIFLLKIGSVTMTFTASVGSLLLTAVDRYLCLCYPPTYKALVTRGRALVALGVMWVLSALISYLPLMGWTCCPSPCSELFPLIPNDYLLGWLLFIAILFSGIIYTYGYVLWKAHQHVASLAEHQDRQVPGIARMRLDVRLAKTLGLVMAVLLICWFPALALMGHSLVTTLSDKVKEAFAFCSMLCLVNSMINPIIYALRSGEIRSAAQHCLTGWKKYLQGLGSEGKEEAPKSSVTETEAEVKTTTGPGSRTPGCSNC
Sequence of human CB2 receptors (P34972 whole entry): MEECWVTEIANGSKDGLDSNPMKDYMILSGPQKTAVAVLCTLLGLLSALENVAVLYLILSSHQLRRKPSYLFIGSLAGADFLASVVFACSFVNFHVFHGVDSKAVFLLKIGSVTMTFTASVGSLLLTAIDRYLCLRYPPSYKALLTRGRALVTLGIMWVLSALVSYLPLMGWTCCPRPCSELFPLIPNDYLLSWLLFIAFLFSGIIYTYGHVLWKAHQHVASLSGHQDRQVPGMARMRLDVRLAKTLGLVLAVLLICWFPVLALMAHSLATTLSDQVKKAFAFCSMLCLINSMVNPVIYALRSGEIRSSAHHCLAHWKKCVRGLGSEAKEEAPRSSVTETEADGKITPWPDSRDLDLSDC

With `CN1CCCCC1Cn1cc(C(=O)c2cc([N+](=O)[O-])ccc2I)c2ccccc21` (stereo not drawn) [AM-1241], the analgesic efficacy entry in [1] was “robust analgesic efficacy”.
Take `CCCCn1nc(C(C)(C)C)s/c1=N\C(=O)c1cc(C(F)(F)F)ccc1ONC(=O)OC(C)(C)C` [Example 141, tert-butyl 2-({[(2Z)-3-butyl-5-tert-butyl-1,3,4-thiadiazol-2(3H)-ylidene]amino}carbonyl)-4-(trifluoromethyl)phenoxycarbamate]: the figures for the Ki in assay [2] and in [4] were 2.3 nM and 0.32 nM, respectively. The EC50 amounted to 273 nM in assay [3] and 1.12 nM in assay [5].
For the compound `CCCCn1nc(C(C)(C)C)s/c1=N\C(=O)c1cc(C(F)(F)F)ccc1ONC(C)C` [Example 144, N-[(2Z)-3-butyl-5-tert-butyl-1,3,4-thiadiazol-2(3H)-ylidene]-2-[(isopropylamino)oxy]-5-(trifluoromethyl)benzamide], the figures for the inhibition constant Ki in assay [2] (setting [11]) and in assay [4] (setting [12]) were 0.8 nM and 0.6 nM, respectively. Also, the EC50 in [3] stood at 415 nM; in [5], 0.22 nM.
On to `CC(C)(C)NOc1ccc(C(F)(F)F)cc1C(=O)/N=c1\sc(C(C)(C)C)nn1CCCC#N` [Example 151, 2-[(tert-butylamino)oxy]-N-[(2Z)-5-tert-butyl-3-(3-cyanopropyl)-1,3,4-thiadiazol-2(3H)-ylidene]-5-(trifluoromethyl)benzamide], for which the Ki in [2] (setting [11]) was determined as 1.2 nM; in assay [4] (setting [12]), 4.3 nM. Moreover, the EC50 in [3] was 938 nM; in assay [5], 0.13 nM.
For `CC(C)(C)NOc1ccc(C(F)(F)F)cc1C(=O)/N=c1\sc(C(C)(C)C)nn1C[C@H]1CCCO1` [Example 153, 2-[(tert-butylamino)oxy]-N-[(2Z)-5-tert-butyl-3-[(2R)-tetrahydrofuran-2-ylmethyl]-1,3,4-thiadiazol-2(3H)-ylidene]-5-(trifluoromethyl)benzamide] the same measures were 3.2 nM, 10 nM, more than 27000 nM and 0.24 nM.
Turning to `CCCCn1nc(C(C)(C)C)s/c1=N\C(=O)c1cc(C(F)(F)F)ccc1ONC(C)=O` [Example 154, 2-[(acetylamino)oxy]-N-[(2Z)-3-butyl-5-tert-butyl-1,3,4-thiadiazol-2(3H)-ylidene]-5-(trifluoromethyl)benzamide], the Ki in [2] (setting [11]) and in [4] (setting [12]) was 1 nM throughout. Also, the EC50 in [3] was determined as 58 nM; in assay [5] it was 1.5 nM.
`CC(C)(C)NOc1ccc(C(F)(F)F)cc1C(=O)/N=c1\sc(C(C)(C)C)nn1CCCC(F)(F)F` [Example 164, 2-[(tert-butylamino)oxy]-N-[(2Z)-5-tert-butyl-3-(4,4,4-trifluorobutyl)-1,3,4-thiadiazol-2(3H)-ylidene]-5-(trifluoromethyl)benzamide]: the Ki in [2] (setting [11]) came out at 0.3 nM; in assay [4] (setting [12]) it was 1.8 nM. The EC50 in [3] is 1020 nM; in [5], 0.28 nM.
`CC(C)(C)NOc1ccc(C(F)(F)F)cc1C(=O)/N=c1\sc(C(C)(C)C)nn1CC1CCC1` [Example 165, 2-[(tert-butylamino)oxy]-N-[(2Z)-5-tert-butyl-3-(cyclobutylmethyl)-1,3,4-thiadiazol-2(3H)-ylidene]-5-(trifluoromethyl)benzamide]: the Ki in assay [2] (setting [11]) was found to be 0.8 nM; in [4] (setting [12]) it was 2.8 nM. The concentration for a half-maximal effect (EC50) was determined as 925 nM in assay [3] and 0.93 nM in [5].
Turning to `CCCCn1nc(C(C)(C)C)s/c1=N\C(=O)c1cc(C(F)(F)F)ccc1ON=C(N)C(C)(C)C` [Example 166, 2-({[1-amino-2,2-dimethylpropylidene]amino}oxy)-N-[(2Z)-3-butyl-5-tert-butyl-1,3,4-thiadiazol-2(3H)-ylidene]-5-(trifluoromethyl)benzamide], the Ki is 43 nM in assay [2] (setting [11]) and 65 nM in [4] (setting [12]). Also, the figures for the EC50 in [3] and in assay [5] were 6960 nM and 3.14 nM, respectively.
Turning to `CCCCn1nc(C(C)(C)C)s/c1=N\C(=O)c1cc(C(F)(F)F)ccc1ON=C(C)C(F)(F)F` [Example 172, N-[(2Z)-3-butyl-5-tert-butyl-1,3,4-thiadiazol-2(3H)-ylidene]-5-(trifluoromethyl)-2-({[2,2,2-trifluoro-1-methylethylidene]amino}oxy)benzamide], the Ki in assay [2] (setting [11]) came to 60 nM; in [4] (setting [12]), 52 nM. Further, the EC50 in assay [3] was more than 27000 nM; in [5], 28 nM.
With `COc1ccc2c(c1)c(CCN1CCOCC1)c(C)n2C(=O)c1cccc(Cl)c1Cl` [GW405833], in assay [6], the “efficacy in pain models” value is recorded as “efficacious”.
As to `CCCCCCC(C)(C)c1cc(OC)c([C@@H]2C=C(CO)[C@@H]3C[C@H]2C3(C)C)c(OC)c1` [HU-308], in [7], the antinociceptive response result was “elicits an antinociceptive response”.
As for `CCCC(C)(C)c1ccc2c(c1)OC(C)(C)[C@@H]1CC=C(C)C[C@@H]21` [JWH-133], the “effect on β-amyloid-induced microglial activation and neurotoxicity” value in [8] was “abrogated β-amyloid-induced microglial activation and neurotoxicity”.
Take (−)-Δ^9-Tetrahydrocannabinol [THC]: the “effect on progression of atherosclerotic lesions” value in assay [9] is “slowed the progression of atherosclerotic lesions”.
SR144528: in [10], the “effect on osteoclast activity and ovariectomy-induced bone loss” value was “inhibit osteoclast activity and reverse ovariectomy-induced bone loss”.

Values taken from patent publication US8859596B2, “Compounds as cannabinoid receptor ligands” (priority 2008, dated 2014).
